This note sets out measurements from patent US8664289B2, “Dye and coloring photosensitive composition” (Adeka Corporation, priority 2010, dated 2014).

Common to all, as to type: physicochemical
The nature of one data set: Solubility in PGMEA. To be noted: concentration when PGMEA was added dropwise to 0.1 g of the compound under stirring and was dissolved completely. Here is the method: That the obtained solid was an intended product was confirmed by ^1H-NMR and IR. Furthermore, the solubility of the obtained compound was measured. The solubility was a concentration when PGMEA was added dropwise to 0.1 g of the compound under stirring and was dissolved completely. The results thereof are shown in [Table 1] to [Table 4].
That the obtained solid was an intended product was confirmed by ^1H-NMR and IR. Furthermore, the solubility of the obtained compound was measured. The solubility was a concentration when PGMEA was added to 0.1 g of the compound while stirring and was dissolved completely. The results thereof are shown in [Table 1] to [Table 4]

Data set [1] is described as follows: Evaluation of absorption wavelength property in CHCl3 solution. On the set-up: ε: unit not given here. To be noted: for ε: molar absorption coefficient. The source says: The absorption wavelength properties of Compounds Nos. 1 to 7, 16, 26, 43, 52 to 62, 65, 66, 69, 70 and 94 to 102 and Comparative Compounds Nos. 1 and 2 obtained above were each evaluated in a CHCl3 solution. The results are shown in [Table 5].

A short description of data set [2]: Evaluation of heat resistance by TG-DTA. To be noted: temperature at 10% weight loss. Here is the method:
Compounds Nos. 1 to 7, 16, 26, 43, 52 to 62, 65, 66, 69, 70 and 94 to 102 and Comparative Compounds Nos. 1 and 2 obtained above were analyzed by TG-DTA, and the melting points and temperatures at 10% weight loss were measured. The results are shown in [Table 6].

Data set [3] is described as follows: Heat resistance of exposed coating film of coloring alkali-developable photosensitive composition. To be noted: for Relative intensity After exposure: coating film after exposure (150 mJ/cm^2), before heating; for λmax: coating film of composition containing the compound, on glass; for Relative intensity 230° C., 30 min: exposed coating film after 230° C. The source says: 30.33 g of ACA Z250 (manufactured by Daicel Cytec Company Ltd.) and 11.04 g of ARONIX M-450 (manufactured by Toagosei Co., Ltd.) as the component (B), 1.93 g of IRGACURE 907 (manufactured by BASF) as the component (C), 36.60 g of PGMEA and 20.08 g of cyclohexanone as the component (E), as well as 0.01 g of FZ2122 (manufactured by Dow Corning Toray Co., Ltd.) as other component were mixed and stirred until insoluble components were diminished to give Alkali-developable photosensitive composition No. 1.
1.90 g of dimethylacetamide was added to 0.10 g of Compound No. 1 obtained above as the component (A) and dissolved under stirring.
5.0 g of Alkali-developable photosensitive composition No. 1 obtained in Step 1 and 1.0 g of Dye liquid No. 1 obtained in Step 2 were mixed and stirred to homogeneous to give Coloring alkali-developable photosensitive composition No. 1 of the present invention.
Coloring alkali-developable photosensitive compositions Nos. 2 to 20 were obtained in a similar manner to that in Example 2-1, except that Compound No. 1 as the component (A) in Step 2 of Example 2-1 was changed to Compound No. 2, 3, 5, 6, 16, 53, 56, 57, 59, 60, 65, 66, 94 or 96 to 101 obtained above.
Comparative coloring alkali-developable photosensitive compositions Nos. 1 and 2 were obtained in a similar manner to that in Example 2-1, except that Compound No. 1 as the component (A) in Step 2 of Example 2-1 was changed to Comparative Compound No. 1 or 2.
The coloring alkali-developable photosensitive compositions obtained in Example 2 were each applied to a glass basal plate under a condition of 410 rpm×7 sec and dried (90° C., 90 sec) on a hot plate. The obtained coating film was exposed (150 mJ/cm^2) by using an ultrahigh pressure mercury lamp. The heat resistance of the exposed coating film was investigated under conditions of 180° C.×60 min and 230° C.×30 min. The results are shown in [Table 7].
Using the coloring alkali-developable photosensitive compositions obtained in Examples 2-2 to 2-20 and Comparative Examples 2-1 and 2-2, heat resistance was investigated in a similar manner to that in Evaluation Example 3. The results are shown in [Table 7].

Consider `CN(CCO)c1ccc(/C=C(\C#N)C(=O)OCC(C)(COC(=O)/C(C#N)=C/c2ccc(N(C)CCO)cc2)COC(=O)/C(C#N)=C/c2ccc(N(C)CCO)cc2)cc1` [Compound No. 98], for which, in the data set “Solubility in PGMEA”, the “Solubility (PGMEA)” value is 1.0 or less wt %. Besides, in data set [1], the λmax came out at 428 nm and the ε worked out at 119000. In addition, in data set [2], the 10% weight loss was 288 °C. Further, in data set [3], the “Relative intensity After exposure” value is given as 100; the λmax stood at 431 nm; the “Relative intensity 230° C., 30 min” value is reported as 99.5.

In the case of `CCN(CC)c1ccc(/C=C(\C#N)C(=O)OCC(COC(=O)/C(C#N)=C/c2ccc(N(CC)CC)cc2)(COC(=O)/C(C#N)=C/c2ccc(N(CC)CC)cc2)COC(=O)/C(C#N)=C/c2ccc(N(CC)CC)cc2)cc1` [Compound No. 16], in “Solubility in PGMEA”, the “Solubility (PGMEA)” value turned out to be 1.8 wt %. Moreover, in data set [1], the λmax is recorded as 439 nm and the ε is listed as 210000. Besides, in data set [2], the 10% weight loss turned out to be 328 °C. Besides, in data set [3], the “Relative intensity After exposure” value came out at 100; the λmax is reported as 438 nm; the “Relative intensity 230° C., 30 min” value worked out at 99.7.

With `CCN(CCC#N)c1ccc(/C=C(\C#N)C(=O)OCCCCCCOC(=O)/C(C#N)=C/c2ccc(N(CC)CCC#N)cc2)cc1` [Compound No. 58], in “Solubility in PGMEA”, the “Solubility (PGMEA)” value is listed as 1.0 or less wt %. Also, in data set [1], the λmax was determined as 420 nm and the ε was determined as 80500. The compound also gave a 10% weight loss in data set [2] of 351 °C.

For the compound `CC(COC(=O)/C(C#N)=C/c1ccc(N(Cc2ccccc2)Cc2ccccc2)cc1)(COC(=O)/C(C#N)=C/c1ccc(N(Cc2ccccc2)Cc2ccccc2)cc1)COC(=O)/C(C#N)=C/c1ccc(N(Cc2ccccc2)Cc2ccccc2)cc1` [Compound No. 101], the “Solubility (PGMEA)” value in the data set “Solubility in PGMEA” is 10.0 wt %. Further, in data set [1], the λmax was determined as 425 nm and the ε is listed as 153000. Moreover, the 10% weight loss in data set [2] was 336 °C. Moreover, in data set [3], the “Relative intensity After exposure” value came to 100; the λmax was 426 nm; the “Relative intensity 230° C., 30 min” value was 99.4.

`CCN(CC)c1ccc(/C=C(\C#N)C(=O)OCCCOC(=O)/C(C#N)=C/c2ccc(N(CC)CC)cc2)cc1` [Compound No. 3]: in the data set “Solubility in PGMEA”, the “Solubility (PGMEA)” value worked out at 0.4 wt %. Further, in data set [1], the λmax is listed as 435 nm and the ε amounted to 104000. Moreover, the 10% weight loss in data set [2] stood at 329 °C. In data set [3], the “Relative intensity After exposure” value was 100; the λmax is recorded as 433 nm; the “Relative intensity 230° C., 30 min” value came out at 99.4.

Regarding `CCN(CC)c1ccc(/C=C(\C#N)C(=O)OCCCCCOC(=O)/C(C#N)=C/c2ccc(N(CC)CC)cc2)cc1` [Compound No. 4], in the data set “Solubility in PGMEA”, the “Solubility (PGMEA)” value is listed as 0.6 wt %. Moreover, in data set [1], the λmax turned out to be 431 nm and the ε is 110000. Moreover, the 10% weight loss in data set [2] came to 335 °C.

`CCN(CC)c1ccc(/C=C(\C#N)C(=O)NCCCCCCNC(=O)/C(C#N)=C/c2ccc(N(CC)CC)cc2)cc1` [Compound No. 7]: in “Solubility in PGMEA”, the “Solubility (PGMEA)” value stood at 0.2 wt %. Besides, in data set [1], the λmax is listed as 432 nm and the ε stood at 99600. Moreover, the 10% weight loss in data set [2] came to 352 °C.

`CCN(CC)c1ccc(/C=C(\C#N)C(=O)NCC(C)NC(=O)/C(C#N)=C/c2ccc(N(CC)CC)cc2)cc1` (centres unmarked) [Compound No. 54]: the “Solubility (PGMEA)” value in the data set “Solubility in PGMEA” is 1.0 or less wt %. In data set [1], this compound showed a λmax of 428 nm and a ε of 90500. This compound also had a 10% weight loss in data set [2] of 354 °C.

For the compound `CCN(CC)c1ccc(/C=C(\C#N)C(=O)Oc2ccc(-c3nc(-c4ccc(OC(=O)/C(C#N)=C/c5ccc(N(CC)CC)cc5)cc4)nc(-c4ccc(OC(=O)/C(C#N)=C/c5ccc(N(CC)CC)cc5)cc4)n3)cc2)cc1` [Compound No. 26], in the data set “Solubility in PGMEA”, the “Solubility (PGMEA)” value is 1.0 or less wt %. In data set [1], this compound gave a λmax of 447 nm and a ε of 210000. The same compound gave a 10% weight loss in data set [2] of 321 °C.

Consider `CCN(CC)c1ccc(/C=C(\C#N)C(=O)Oc2ccc(C3(c4ccc(OC(=O)/C(C#N)=C/c5ccc(N(CC)CC)cc5)cc4)CCCCC3)cc2)cc1` [Compound No. 52], for which the “Solubility (PGMEA)” value in the data set “Solubility in PGMEA” came to 0.6 wt %. Moreover, in data set [1], the λmax amounted to 441 nm and the ε came out at 121000. Also, the 10% weight loss in data set [2] was found to be 322 °C.

On to `CC(COC(=O)/C(C#N)=C/c1ccc(N(C)C)cc1)OC(=O)/C(C#N)=C/c1ccc(N(C)C)cc1` (centres unmarked) [Compound No. 55], for which the “Solubility (PGMEA)” value in the data set “Solubility in PGMEA” is recorded as 1.0 or less wt %. Also, in data set [1], the λmax came to 427 nm and the ε is given as 84600. Also, the 10% weight loss in data set [2] was 323 °C.

As to `CCOCCOC(=O)/C(C#N)=C/c1ccc(N(CC)CC)cc1` [Comparative Compound No. 2, reference compound], in data set [3], the “Relative intensity After exposure” value is 100; the λmax turned out to be 433 nm; the “Relative intensity 230° C., 30 min” value is recorded as 24.0.

As for `CC(=O)OCCN(CCOC(C)=O)c1ccc(/C=C(\C#N)C(=O)OCCCCCCCOC(=O)/C(C#N)=C/c2ccc(N(CCOC(C)=O)CCOC(C)=O)cc2)cc1` [Compound No. 62], the “Solubility (PGMEA)” value in “Solubility in PGMEA” was 1.0 or less wt %. Also, in data set [1], the λmax is 409 nm and the ε is listed as 89900. The 10% weight loss in data set [2] is 366 °C.

In the case of `CCCCN(CCCC)c1ccc(/C=C(\C#N)C(=O)Oc2ccc(C(c3ccc(OC(=O)/C(C#N)=C/c4ccc(N(CCCC)CCCC)cc4)cc3)(C(F)(F)F)C(F)(F)F)cc2)cc1` [Compound No. 69], the “Solubility (PGMEA)” value in “Solubility in PGMEA” is listed as 1.0 or less wt %. Moreover, in data set [1], the λmax stood at 448 nm and the ε was determined as 107000. This compound yielded a 10% weight loss in data set [2] of 336 °C.

In data set [1], `CCOCCOC(=O)C(C#N)=C(C)c1ccc(N(CC)CC)cc1` [Comparative Compound No. 2, reference compound] had a λmax of 432 nm and a ε of 57200. The compound further gave a 10% weight loss in data set [2] of 252 °C.

Take `CN(C)c1ccc(/C=C(\C#N)C(=O)OCCCCCCCCCCOC(=O)/C(C#N)=C/c2ccc(N(C)C)cc2)cc1` [Compound No. 61]: the “Solubility (PGMEA)” value in the data set “Solubility in PGMEA” is on record as 1.0 or less wt %. In data set [1], this compound came in with a λmax of 423 nm and a ε of 90800. This compound registered a 10% weight loss in data set [2] of 350 °C.

On to `CCCCN(CCCC)c1ccc(/C=C(\C#N)C(=O)Oc2ccc(S(=O)(=O)c3ccc(OC(=O)/C(C#N)=C/c4ccc(N(CCCC)CCCC)cc4)cc3)cc2)cc1` [Compound No. 70], for which the “Solubility (PGMEA)” value in the data set “Solubility in PGMEA” is 1.0 or less wt %. In data set [1], this compound gave a λmax of 453 nm and a ε of 135000. In data set [2], this compound returned a 10% weight loss of 324 °C.

On to `CC(COC(=O)/C(C#N)=C/c1ccc(N2CCOCC2)cc1)OC(=O)/C(C#N)=C/c1ccc(N2CCOCC2)cc1` (centres unmarked) [Compound No. 43], for which the “Solubility (PGMEA)” value in the data set “Solubility in PGMEA” is reported as 1.0 or less wt %. In data set [1], this compound returned a λmax of 408 nm and a ε of 62800. Besides, the 10% weight loss in data set [2] came to 318 °C.

Turning to `CCCCN(CCCC)c1ccc(/C=C(\C#N)C(=O)OCC(C)(COC(=O)/C(C#N)=C/c2ccc(N(CCCC)CCCC)cc2)COC(=O)/C(C#N)=C/c2ccc(N(CCCC)CCCC)cc2)cc1` [Compound No. 102], in “Solubility in PGMEA”, the “Solubility (PGMEA)” value worked out at 7.5 wt %. In data set [1], this compound returned a λmax of 440 nm and a ε of 125000. Moreover, the 10% weight loss in data set [2] is 354 °C.

With `CCOC(=O)/C(C#N)=C/c1ccc(N(CC)CC)cc1` [Comparative Compound No. 1, reference compound], in data set [1], the λmax was 430 nm and the ε worked out at 54900. The compound also gave a 10% weight loss in data set [2] of 259 °C.
